The assay deals with Tyrosyl-DNA phosphodiesterase 2 (Homo sapiens) (UniProt O95551). In words: human TDP2 enzyme inhibitors, late-stage follow-up, biochemical, epi absorbance, IC50 (AID 1083212). Conditions: recombinant TDP2, T5PNP hydrolysis, p-nitrophenol absorbance 415 nm.

The structures appear in SMILES notation. Calls of active or inactive are those of the source.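 The calls were made as follows: active = IC50 of 10 µM or lower; inactive = IC50 above 10 µM.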

Chain of Tyrosyl-DNA phosphodiesterase 2 (Homo sapiens) (O95551 whole entry, looked up): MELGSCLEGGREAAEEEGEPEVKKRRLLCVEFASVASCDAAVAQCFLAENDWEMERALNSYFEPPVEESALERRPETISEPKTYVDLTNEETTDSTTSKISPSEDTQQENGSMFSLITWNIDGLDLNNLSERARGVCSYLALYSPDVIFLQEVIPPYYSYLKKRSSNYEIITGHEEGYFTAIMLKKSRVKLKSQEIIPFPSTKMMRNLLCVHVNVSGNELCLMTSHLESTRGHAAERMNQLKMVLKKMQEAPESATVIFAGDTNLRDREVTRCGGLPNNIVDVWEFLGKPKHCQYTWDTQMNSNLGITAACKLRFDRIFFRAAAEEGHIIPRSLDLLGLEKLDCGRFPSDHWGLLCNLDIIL

Regarding `O=C(O)c1ccc(NC2=C/C(=N/S(=O)(=O)c3cccs3)c3ccccc3C2=O)cc1`, the IC50 was 1.32 µM.

Turning to `Cc1ccc(NC2=C/C(=N\S(=O)(=O)c3cccs3)c3ccccc3C2=O)cc1`, the IC50 was > 128 µM (inactive).

In the case of `COc1ccc(CNC(=S)Nc2ccc(S(N)(=O)=O)cc2)cc1`, the IC50 is > 128 µM (inactive).

The record behind these values is PubChem BioAssay AID1083212 (The Scripps Research Institute Molecular Screening Center, 2014).
